{"source": "ChEMBL document CHEMBL5576105", "about": "“Synthesis and biological evaluation of O4'-benzyl-hispidol derivatives and analogs as dual monoamine oxidase-B inhibitors and anti-neuroinflammatory agents” (Bioorg Med Chem, 2024)", "note": "Active and inactive are the calls of the source. The calls are words filed in the database; no cut-off is given here.", "data": [{"molecular_target": "T1, Amine oxidase [flavin-containing] B (Homo sapiens, UniProt P27338)", "T1 sequence (P27338 whole entry)": "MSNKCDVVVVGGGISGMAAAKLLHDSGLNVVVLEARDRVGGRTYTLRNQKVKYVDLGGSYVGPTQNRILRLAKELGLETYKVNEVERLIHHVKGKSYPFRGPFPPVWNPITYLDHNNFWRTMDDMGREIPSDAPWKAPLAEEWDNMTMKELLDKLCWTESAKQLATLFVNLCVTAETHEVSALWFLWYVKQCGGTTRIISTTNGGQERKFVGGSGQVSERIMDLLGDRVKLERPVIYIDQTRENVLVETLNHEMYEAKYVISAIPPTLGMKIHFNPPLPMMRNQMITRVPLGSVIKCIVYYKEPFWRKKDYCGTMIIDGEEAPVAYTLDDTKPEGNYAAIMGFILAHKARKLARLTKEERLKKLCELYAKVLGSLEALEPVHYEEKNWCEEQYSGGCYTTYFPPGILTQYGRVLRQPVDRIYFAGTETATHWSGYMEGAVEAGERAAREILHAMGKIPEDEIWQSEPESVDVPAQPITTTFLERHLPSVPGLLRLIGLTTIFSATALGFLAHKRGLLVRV", "test": "Inhibition of human recombinant MAO-B expressed in baculovirus-infected BTI cells at 10 uM using benzylamine as substrate preincubated with enzyme for 15 mins followed by substrate addition and measured after 20 mins by Amplex Red reagent based fluorescence analysis", "settings": "time 35 min", "units": {"inhibition at 10 µM": "%"}, "values": [{"smiles": "O=C1/C(=C/c2ccc(OCc3ccccc3Br)cc2)Oc2cc(O)ccc21", "inhibition at 10 µM": 81.7}, {"smiles": "O=C1/C(=C/c2cccc(OCc3ccccc3Cl)c2)Oc2cc(O)ccc21", "inhibition at 10 µM": 41.7}, {"smiles": "O=C1/C(=C/c2ccc(OCc3cccc(Cl)c3)cc2)Oc2cc(O)ccc21", "inhibition at 10 µM": 59}, {"smiles": "COc1cccc(COc2ccc(/C=C3\\Oc4cc(O)ccc4C3=O)cc2)c1", "inhibition at 10 µM": 59.7}, {"smiles": "O=C1/C(=C/c2ccc(OCc3cccc(F)c3)cc2)Oc2cc(O)ccc21", "inhibition at 10 µM": 55.3}, {"smiles": "O=C1/C(=C/c2ccc(OCc3ccc(F)cc3)cc2)Oc2cc(O)ccc21", "inhibition at 10 µM": 68.2}, {"smiles": "O=C1/C(=C/c2cccc(OCc3cccc(Cl)c3)c2)Oc2cc(O)ccc21", "inhibition at 10 µM": 61.7}, {"smiles": "O=C1/C(=C/c2cccc(OCc3ccccc3)c2)Oc2cc(O)ccc21", "inhibition at 10 µM": 77.8}, {"smiles": "O=C1/C(=C/c2cccc(OCc3ccccc3Br)c2)Oc2cc(O)ccc21", "inhibition at 10 µM": 36}, {"smiles": "COc1cccc(COc2cccc(/C=C3\\Oc4cc(O)ccc4C3=O)c2)c1", "inhibition at 10 µM": 70.1}, {"smiles": "O=C1/C(=C/c2ccc(OCc3ccc(Br)cc3)cc2)Oc2cc(O)ccc21", "inhibition at 10 µM": 41.1}, {"smiles": "O=C1/C(=C/c2ccc(OCc3ccccc3)cc2)Oc2cc(O)ccc21", "inhibition at 10 µM": 86.7}]}, {"molecular_target": "T1, Amine oxidase [flavin-containing] B", "test": "Inhibition of human recombinant MAO-B expressed in baculovirus-infected BTI cells using benzylamine as substrate preincubated with enzyme for 15 mins followed by substrate addition and measured after 20 mins by Amplex Red reagent based fluorescence analysis", "settings": "not given", "units": {"IC50": "nM"}, "values": [{"smiles": "O=C1/C(=C/c2ccc(OCc3ccccc3Br)cc2)Oc2cc(O)ccc21", "IC50": 440}, {"smiles": "O=C1/C(=C/c2ccc(OCc3ccc(F)cc3)cc2)Oc2cc(O)ccc21", "IC50": 1000}, {"smiles": "O=C1/C(=C/c2cccc(OCc3cccc(Cl)c3)c2)Oc2cc(O)ccc21", "IC50": 1910}, {"smiles": "O=C1/C(=C/c2cccc(OCc3ccccc3)c2)Oc2cc(O)ccc21", "IC50": 1110}, {"smiles": "COc1cccc(COc2cccc(/C=C3\\Oc4cc(O)ccc4C3=O)c2)c1", "IC50": 1060}, {"smiles": "O=C1/C(=C/c2ccc(OCc3ccccc3)cc2)Oc2cc(O)ccc21", "IC50": 720}]}, {"molecular_target": "T2, Amine oxidase [flavin-containing] A (Homo sapiens, UniProt P21397)", "T2 sequence (P21397 whole entry)": "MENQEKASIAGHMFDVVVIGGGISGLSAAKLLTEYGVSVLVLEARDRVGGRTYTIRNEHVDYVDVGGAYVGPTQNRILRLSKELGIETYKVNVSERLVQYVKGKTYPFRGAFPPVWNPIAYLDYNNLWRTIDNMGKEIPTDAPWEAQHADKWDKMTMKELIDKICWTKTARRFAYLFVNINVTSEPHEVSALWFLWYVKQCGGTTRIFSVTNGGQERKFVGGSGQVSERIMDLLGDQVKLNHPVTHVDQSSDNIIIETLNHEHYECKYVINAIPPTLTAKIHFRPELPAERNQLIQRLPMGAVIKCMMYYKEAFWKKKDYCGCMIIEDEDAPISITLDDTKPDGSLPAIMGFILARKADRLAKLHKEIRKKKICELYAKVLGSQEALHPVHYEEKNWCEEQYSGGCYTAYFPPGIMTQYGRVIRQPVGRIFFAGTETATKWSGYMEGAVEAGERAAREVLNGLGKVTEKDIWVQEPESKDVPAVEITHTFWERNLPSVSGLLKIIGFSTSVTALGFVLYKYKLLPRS", "test": "Inhibition of human recombinant MAO-A using p-tyramine as substrate preincubated with enzyme for 15 mins followed by substrate addition and measured after 20 mins by Amplex Red reagent based fluorescence analysis", "settings": "not given", "units": {"IC50": "µM"}, "values": [{"smiles": "O=C1/C(=C/c2ccc(OCc3ccccc3Br)cc2)Oc2cc(O)ccc21", "IC50": "> 100"}, {"smiles": "O=C1/C(=C/c2ccc(OCc3ccc(F)cc3)cc2)Oc2cc(O)ccc21", "IC50": "> 100"}, {"smiles": "O=C1/C(=C/c2cccc(OCc3cccc(Cl)c3)c2)Oc2cc(O)ccc21", "IC50": "> 100"}, {"smiles": "O=C1/C(=C/c2cccc(OCc3ccccc3)c2)Oc2cc(O)ccc21", "IC50": "> 100"}, {"smiles": "COc1cccc(COc2cccc(/C=C3\\Oc4cc(O)ccc4C3=O)c2)c1", "IC50": "> 30"}, {"smiles": "O=C1/C(=C/c2ccc(OCc3ccccc3)cc2)Oc2cc(O)ccc21", "IC50": "> 100"}]}, {"organism": "Homo sapiens", "test": "Selectivity index, ratio of IC50 for inhibition of human recombinant MAO-A to IC50 for inhibition of human recombinant MAO-B expressed in baculovirus-infected BTI cells", "settings": "not given", "values": [{"smiles": "O=C1/C(=C/c2ccc(OCc3ccccc3Br)cc2)Oc2cc(O)ccc21", "Ratio IC50": "> 227"}, {"smiles": "O=C1/C(=C/c2ccc(OCc3ccc(F)cc3)cc2)Oc2cc(O)ccc21", "Ratio IC50": "> 100"}, {"smiles": "O=C1/C(=C/c2cccc(OCc3cccc(Cl)c3)c2)Oc2cc(O)ccc21", "Ratio IC50": "> 52.3"}, {"smiles": "O=C1/C(=C/c2cccc(OCc3ccccc3)c2)Oc2cc(O)ccc21", "Ratio IC50": "> 89.8"}, {"smiles": "COc1cccc(COc2cccc(/C=C3\\Oc4cc(O)ccc4C3=O)c2)c1", "Ratio IC50": "> 28.4"}, {"smiles": "O=C1/C(=C/c2ccc(OCc3ccccc3)cc2)Oc2cc(O)ccc21", "Ratio IC50": "> 138"}]}, {"tested_on": "BV-2", "test": "Cytotoxicity against mouse BV-2 cells assessed as effect on cell viability upto 10 uM", "type": "toxicity, cell-based", "settings": "bv-2, 10 µM", "values": [{"smiles": "O=C1/C(=C/c2ccc(OCc3ccc(F)cc3)cc2)Oc2cc(O)ccc21", "Activity": "Non-Toxic"}, {"smiles": "O=C1/C(=C/c2ccc(OCc3ccccc3)cc2)Oc2cc(O)ccc21", "Activity": "Non-Toxic"}]}, {"tested_on": "BV-2", "test": "Cytotoxicity against mouse BV-2 cells assessed as effect on cell viability at 30 uM", "type": "toxicity, cell-based", "settings": "bv-2, 30 µM", "values": [{"smiles": "O=C1/C(=C/c2ccc(OCc3ccc(F)cc3)cc2)Oc2cc(O)ccc21", "Activity": "Non-Toxic"}, {"smiles": "O=C1/C(=C/c2ccc(OCc3ccccc3)cc2)Oc2cc(O)ccc21", "Activity": "Non-Toxic"}]}, {"tested_on": "MAO-B", "test": "Safety ratio of cytotoxicity against mouse BV-2 cells to IC50 for inhibition of human recombinant MAO-B expressed in baculovirus-infected BTI cells", "type": "toxicity", "settings": "not given", "values": [{"smiles": "O=C1/C(=C/c2ccc(OCc3ccccc3Br)cc2)Oc2cc(O)ccc21", "selectivity ratio": "> 6"}, {"smiles": "O=C1/C(=C/c2ccc(OCc3ccc(F)cc3)cc2)Oc2cc(O)ccc21", "selectivity ratio": "> 30"}, {"smiles": "O=C1/C(=C/c2ccc(OCc3ccccc3)cc2)Oc2cc(O)ccc21", "selectivity ratio": "> 41.6"}]}, {"tested_on": "BV-2", "test": "Anti-neuroinflammatory activity against mouse BV-2 cells assessed as suppression of LPS-induced NO production", "type": "functional, cell-based", "settings": "not given", "values": [{"smiles": "O=C1/C(=C/c2ccc(OCc3ccc(F)cc3)cc2)Oc2cc(O)ccc21", "Activity": "Dose-Dependent Effect"}, {"smiles": "O=C1/C(=C/c2ccc(OCc3ccccc3)cc2)Oc2cc(O)ccc21", "Activity": "Dose-Dependent Effect"}]}, {"tested_on": "BV-2", "test": "Anti-neuroinflammatory activity against mouse BV-2 cells assessed as suppression of LPS-induced NO production at 1 uM", "type": "functional, cell-based", "settings": "not given", "values": [{"smiles": "O=C1/C(=C/c2ccc(OCc3ccc(F)cc3)cc2)Oc2cc(O)ccc21", "Activity": "inactive"}]}, {"tested_on": "BV-2", "test": "Anti-neuroinflammatory activity against mouse BV-2 cells assessed as suppression of LPS-induced NO production at 3 uM", "type": "functional, cell-based", "settings": "not given", "values": [{"smiles": "O=C1/C(=C/c2ccc(OCc3ccc(F)cc3)cc2)Oc2cc(O)ccc21", "Activity": "Active"}]}, {"tested_on": "BV-2", "test": "Anti-neuroinflammatory activity against mouse BV-2 cells assessed as suppression of LPS-induced NO production at 10 uM", "type": "functional, cell-based", "settings": "not given", "values": [{"smiles": "O=C1/C(=C/c2ccc(OCc3ccccc3)cc2)Oc2cc(O)ccc21", "Activity": "Active"}]}, {"tested_on": "BV-2", "test": "Anti-neuroinflammatory activity against mouse BV-2 cells assessed as suppression of LPS-induced PGE2 production", "type": "functional, cell-based", "settings": "dose 5-10 µM", "values": [{"smiles": "O=C1/C(=C/c2ccc(OCc3ccc(F)cc3)cc2)Oc2cc(O)ccc21", "Activity": "Dose-Dependent Effect"}, {"smiles": "O=C1/C(=C/c2ccc(OCc3ccccc3)cc2)Oc2cc(O)ccc21", "Activity": "Dose-Dependent Effect"}]}, {"tested_on": "BV-2", "test": "Anti-neuroinflammatory activity against mouse BV-2 cells assessed as suppression of LPS-induced PGE2 production at 5 to 10 uM", "type": "functional, cell-based", "settings": "dose 5-10 µM", "values": [{"smiles": "O=C1/C(=C/c2ccc(OCc3ccccc3)cc2)Oc2cc(O)ccc21", "Activity": "Active"}]}, {"tested_on": "BV-2", "test": "Anti-neuroinflammatory activity against mouse BV-2 cells assessed as suppression of LPS-induced PGE2 production at 10 uM", "type": "functional, cell-based", "settings": "not given", "values": [{"smiles": "O=C1/C(=C/c2ccc(OCc3ccc(F)cc3)cc2)Oc2cc(O)ccc21", "Activity": "Active"}]}]}
